Assays:
pressor = pressor efficiency, inhibition activity pA2; format: in vivo; conditions: decimal commas
Description: (§1) Certain biological effects of the analogs of oxytocin and vasopressin are set forth in Table I. The inhibition effects of compounds in an in vitro test are expressed as values of pA2, which is the negative logarithm of the molar concentration of inhibitor. This reduces the response of 2X units of an agonistic compound to be equal to the response of 1X units in the absence of inhibitor (Schild, Brit. J. Pharmacol. 2, 189, 1947; Dyckes et al, J. Med. Chem. 17, 160, 1974). In an […] test (uterus in vitro), the value of pA2 corresponds with the negative logarithm of an inhibitor constant according to the relationship [formula] wherein B is the concentration of inhibitor (M), A50 is the concentration of agonistic compound leading to 50% of the maximum effect, and A50B is the concentration of agonistic compound leading to 50% of the maximum effect in the presence of inhibitor B (Eggena et al, J. Gen. Physiol. 52, 465, 1968).

uterus in vitro = test: uterotonic efficiency in vitro, inhibition activity pA2; format: cell-based; conditions: pA2, negative logarithm of molar inhibitor concentration; decimal commas
Description: as §1

galactogogic = galactogogic efficiency, inhibition activity pA2; format: in vivo; conditions: for Inhibition activity pA2 in the determination of efficiency galactogogic: decimal commas
Description: as §1

uterus in situ = test: uterotonic efficiency in situ, inhibition activity pA2; format: in vivo; conditions: pA2, negative logarithm of inhibitor constant; decimal commas
Description: as §1

CC[C@H](C)[C@@H]1NC(=O)[C@H](Cc2ccc(O)cc2)NC(=O)[C@@H](NC(C)=O)C(C)(C)SSC[C@@H](C(=O)N2CCC[C@H]2C(=O)N[C@@H](CC(C)C)C(=O)NCC(N)=O)NC(=O)[C@H](CC(N)=O)NC(=O)[C@H](CCC(N)=O)NC1=O [Ia, [1-N-acetylpenicilamine]oxytocin]
Inhibition activity pA2 in the determination of efficiency pressor (pressor): ineffective | Inhibition activity pA2 in the determination of efficiency uterotonic in vitro (uterus in vitro): 4,4

CC[C@H](C)[C@@H]1NC(=O)[C@H](Cc2ccc(OC)cc2)NC(=O)[C@@H](NC(C)=O)C(C)(C)SSC[C@@H](C(=O)N2CCC[C@H]2C(=O)N[C@@H](CC(C)C)C(=O)NCC(N)=O)NC(=O)[C@H](CC(N)=O)NC(=O)[C@H](CCC(N)=O)NC1=O [Ic, [1-N-acetylpenicilamine, 2-O-methyltyrosine]oxytocin]
Inhibition activity pA2 in the determination of efficiency pressor (pressor): 6,4 | Inhibition activity pA2 in the determination of efficiency uterotonic in vitro (uterus in vitro): 5,4 | galactogogic agonistic activity (galactogogic; footnote b: agonistic activity, not pA2): 0,45 I.U./mg

CC1(C)SSC[C@@H](C(=O)N2CCC[C@H]2C(=O)N[C@@H](CCCCN)C(=O)NCC(N)=O)NC(=O)[C@H](CC(N)=O)NC(=O)[C@H](CCC(N)=O)NC(=O)[C@H](Cc2ccccc2)NC(=O)[C@H](Cc2ccc(O)cc2)NC(=O)[C@H]1N [Id, [1-Penicilamine, 8-lysine]vasopressin]
Inhibition activity pA2 in the determination of efficiency pressor (pressor): 6,9 | Inhibition activity pA2 in the determination of efficiency uterotonic in situ (uterus in situ): 6,3 | Inhibition activity pA2 in the determination of efficiency uterotonic in vitro (uterus in vitro): 6,6

CC(=O)N[C@@H]1C(=O)N[C@@H](Cc2ccc(O)cc2)C(=O)N[C@@H](Cc2ccccc2)C(=O)N[C@@H](CCC(N)=O)C(=O)N[C@@H](CC(N)=O)C(=O)N[C@H](C(=O)N2CCC[C@H]2C(=O)N[C@@H](CCCCN)C(=O)NCC(N)=O)CSSC1(C)C [Ie, [1-N-Actylpenicilamine, 8-lysine]vasopressin]
Inhibition activity pA2 in the determination of efficiency pressor (pressor): ineffective | Inhibition activity pA2 in the determination of efficiency uterotonic in situ (uterus in situ): 6,3 | Inhibition activity pA2 in the determination of efficiency uterotonic in vitro (uterus in vitro): 5,5 | Inhibition activity pA2 in the determination of efficiency galactogogic (galactogogic): ineffective

COc1ccc(C[C@@H]2NC(=O)[C@@H](N)C(C)(C)SSC[C@@H](C(=O)N3CCC[C@H]3C(=O)N[C@@H](CCCCN)C(=O)NCC(N)=O)NC(=O)[C@H](CC(N)=O)NC(=O)[C@H](CCC(N)=O)NC(=O)[C@H](Cc3ccccc3)NC2=O)cc1 [If, [1-Penicilamine, 2-O-methyltyrosine, 8-lysine]vasopressin]
Inhibition activity pA2 in the determination of efficiency pressor (pressor): 7,4 | Inhibition activity pA2 in the determination of efficiency uterotonic in situ (uterus in situ): 6,9 | Inhibition activity pA2 in the determination of efficiency uterotonic in vitro (uterus in vitro): 8,1 | Inhibition activity pA2 in the determination of efficiency galactogogic (galactogogic): 6,8

COc1ccc(C[C@@H]2NC(=O)[C@@H](NC(C)=O)C(C)(C)SSC[C@@H](C(=O)N3CCC[C@H]3C(=O)N[C@@H](CCCCN)C(=O)NCC(N)=O)NC(=O)[C@H](CC(N)=O)NC(=O)[C@H](CCC(N)=O)NC(=O)[C@H](Cc3ccccc3)NC2=O)cc1 [Ig, [1-N-acetylpenicilamine, 2-O-methyltyrosine, 8-lysine]vasopressin]
Inhibition activity pA2 in the determination of efficiency pressor (pressor): 6,7 | Inhibition activity pA2 in the determination of efficiency galactogogic (galactogogic): ineffective

CC1(C)SSC[C@H](N)C(=O)N[C@@H](Cc2ccc(O)cc2)C(=O)N[C@@H](Cc2ccccc2)C(=O)N[C@@H](CCC(N)=O)C(=O)N[C@@H](CC(N)=O)C(=O)N[C@@H]1C(=O)N1CCC[C@H]1C(=O)N[C@@H](CCCCN)C(=O)NCC(N)=O [Ih, [6-Penicilamine, 8-lysine]vasopressin]
Inhibition activity pA2 in the determination of efficiency pressor (pressor): 6,73 | Inhibition activity pA2 in the determination of efficiency uterotonic in situ (uterus in situ): 6,16 | Inhibition activity pA2 in the determination of efficiency uterotonic in vitro (uterus in vitro): 6,00

CC1(C)SSC(C)(C)[C@@H](C(=O)N2CCC[C@H]2C(=O)N[C@@H](CCCCN)C(=O)NCC(N)=O)NC(=O)[C@H](CC(N)=O)NC(=O)[C@H](CCC(N)=O)NC(=O)[C@H](Cc2ccccc2)NC(=O)[C@H](Cc2ccc(O)cc2)NC(=O)[C@H]1N [Ii, [1-Penicilamine, 6-penicilamine, 8-lysine]vasopressin]
Inhibition activity pA2 in the determination of efficiency pressor (pressor): 7,18 | Inhibition activity pA2 in the determination of efficiency uterotonic in situ (uterus in situ): 6,80 | Inhibition activity pA2 in the determination of efficiency uterotonic in vitro (uterus in vitro): 6,80

[1-Penicilamine, 2-O-methyltyrosine]oxytocin [Ib]
Inhibition activity pA2 in the determination of efficiency pressor (pressor): 7,2 | Inhibition activity pA2 in the determination of efficiency uterotonic in situ (uterus in situ): 6,9 | Inhibition activity pA2 in the determination of efficiency uterotonic in vitro (uterus in vitro): 8,0 | Inhibition activity pA2 in the determination of efficiency galactogogic (galactogogic): 6,8
